The record followed here is patent publication US20240238423A9, “TETRAHYDROISOQUINOLINE HETEROBIFUNCTIONAL BCL-XL DEGRADERS” (Treeline Biosciences, Inc., priority 2022, published 2024).

In this test the target is T1, Human BCL-XL protein (N-terminal HiBiT tagged BCL-XL in HT1080 cells) (Homo sapiens, UniProt Q07817).
T1 construct: expressed in transfected cells; host or cells: HT-1080 (ATCC CCL-121), stably transduced with lentivirus pLV-UBC-N-HiBiT-BCL-XL-PGK-puro and selected with puromycin
The test is described as follows: HiBiT based degradation assay. In kind it is cell-based. To be noted: HT1080 cells expressing HiBiT-BCL-XL, 24 h; for Ymin (24 h): BCL-XL degradation normalized with DMSO control; for DC50: BCL-XL degradation, read-out: EC50 (24 h). The text has this: Human BCL-XL protein coding open reading frame fused with N-terminal HiBiT coding sequence was synthesized from Integrated DNA Technologies (IDT). Next, N-HiBiT-BCL-XL sequence was cloned into pLV-UBC-PGK-Puro, a lentivirus plasmid purchased from Vectorbuilder, to generate pLV-UBC-N-HiBiT-BCL-XL-PGK-puro. Lentiviral particles were generated from Lenti-X™ 293T cells (Clontech) by co-transfection of pLV-UBC-N-HiBiT-BCL-XL-PGK-puro plasmids and lentiviral packaging plasmid mix (Cellecta). HT-1080 [HT1080](ATCC CCL-121) cells were infected with the lentivirus, and HT1080 cells stably integrated with the lentiviral vectors were established by incubation with 1 μg/mL puromycin (Thermofisher).
HT1080 cells expressing N-terminal HiBiT tagged BCL-XL were dispensed into a 384-well plate pre-spotted with compounds at varying concentrations. Three thousand cells were seeded into each well in 40 μL of RPMI 1640 media. […] After incubation, luminescence was read on a PHERAstar FSX Plate Reader (BMG). BCL-XL degradation at each indicated concentration was normalized with the DMSO control. The BCL-XL degradation curves were plotted using a four-parameter logistic model. For compounds displaying hook effects, the curve fitting was performed using the bottom point of the hook curves (i.e., the point of Ymin) as the bottom plateau to calculate EC50.

Where only a bound is given, the exact number is not on record here.

T1 sequence (Q07817 whole entry): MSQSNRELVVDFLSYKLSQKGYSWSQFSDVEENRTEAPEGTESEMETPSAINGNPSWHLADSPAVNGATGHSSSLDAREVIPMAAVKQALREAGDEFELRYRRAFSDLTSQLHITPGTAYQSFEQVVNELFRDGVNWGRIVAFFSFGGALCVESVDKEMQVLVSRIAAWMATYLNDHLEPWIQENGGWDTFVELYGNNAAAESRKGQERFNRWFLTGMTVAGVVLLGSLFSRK

With `Cc1c(O[C@H]2CC[C@H](C[C@@H](C)CCN3CCN(c4ccc5c(C6CCC(=O)NC6=O)nn(C)c5c4)CC3)CC2)cccc1-c1ccc(N2CCc3cccc(C(=O)Nc4nc5ccccc5s4)c3C2)nc1C(=O)O` (single isomer, unassigned) [Compound 307b], the “Ymin (24 h)” value is “A (Ymin < 50%)” and the DC50 was less than 100 nM.
Taken in the same sequence, the figures for `Cc1c(O[C@H]2CC[C@H](CC[C@@H](C)CN3CCN(c4ccc5c(C6CCC(=O)NC6=O)nn(C)c5c4)CC3)CC2)cccc1-c1ccc(N2CCc3cccc(C(=O)Nc4nc5ccccc5s4)c3C2)nc1C(=O)O` (single isomer, unassigned) [Compound 308a] were “A (Ymin < 50%)” and less than 100 nM.
Taken in the same sequence, the figures for `Cc1c(O[C@H]2CC[C@H](CC[C@H](C)CN3CCN(c4ccc5c(C6CCC(=O)NC6=O)nn(C)c5c4)CC3)CC2)cccc1-c1ccc(N2CCc3cccc(C(=O)Nc4nc5ccccc5s4)c3C2)nc1C(=O)O` (single isomer, unassigned) [Compound 308b] were “A (Ymin < 50%)” and less than 100 nM.
For `Cc1c(O[C@H]2CC[C@H]([C@H](C)CCN3CCN(c4ccc5c(C6CCC(=O)NC6=O)nn(C)c5c4)CC3)CC2)cccc1-c1ccc(N2CCc3cccc(C(=O)Nc4nc5ccccc5s4)c3C2)nc1C(=O)O` (single isomer, unassigned) [Compound 310a] the same measures were “A (Ymin < 50%)” and less than 100 nM.
On to `Cc1c(O[C@H]2CC[C@H]([C@@H](C)CCN3CCN(c4ccc5c(C6CCC(=O)NC6=O)nn(C)c5c4)CC3)CC2)cccc1-c1ccc(N2CCc3cccc(C(=O)Nc4nc5ccccc5s4)c3C2)nc1C(=O)O` (single isomer, unassigned) [Compound 310b], for which the “Ymin (24 h)” value is given as “A (Ymin < 50%)” and the DC50 is less than 100 nM.
For `Cc1c(O[C@H]2CC[C@H](CCCN3CCC(c4cccc5c(C6CCC(=O)NC6=O)nn(C)c45)C3)CC2)cccc1-c1ccc(N2CCc3cccc(C(=O)Nc4nc5ccccc5s4)c3C2)nc1C(=O)O` (single isomer, unassigned) [Compound 320a] the same measures were “A (Ymin < 50%)” and less than 100 nM.
Consider `Cc1c(O[C@H]2CC[C@H](CCCN3CC[C@@H](c4cccc5c(C6CCC(=O)NC6=O)nn(C)c45)C3)CC2)cccc1-c1ccc(N2CCc3cccc(C(=O)Nc4nc5ccccc5s4)c3C2)nc1C(=O)O` (single isomer, unassigned) [Compound 320b], for which the “Ymin (24 h)” value is given as “A (Ymin < 50%)” and the DC50 is less than 100 nM.
As for `Cc1c(O[C@H]2CC[C@H](CCCCN3CC[C@H](c4cccc5c(C6CCC(=O)NC6=O)nn(C)c45)C3)CC2)cccc1-c1ccc(N2CCc3cccc(C(=O)Nc4nc5ccccc5s4)c3C2)nc1C(=O)O` (single isomer, unassigned) [Compound 321a], the “Ymin (24 h)” value was “A (Ymin < 50%)” and the DC50 is less than 100 nM.
For `Cc1c(O[C@H]2CC[C@H](CCCCN3CC[C@@H](c4cccc5c(C6CCC(=O)NC6=O)nn(C)c45)C3)CC2)cccc1-c1ccc(N2CCc3cccc(C(=O)Nc4nc5ccccc5s4)c3C2)nc1C(=O)O` (single isomer, unassigned) [Compound 321b] the same measures were “A (Ymin < 50%)” and less than 100 nM.
As for `Cc1c(O[C@H]2CC[C@H](CCCN3CC[C@H](c4ccc5c(C6CCC(=O)NC6=O)nn(C)c5c4)C3)CC2)cccc1-c1ccc(N2CCc3cccc(C(=O)Nc4nc5ccccc5s4)c3C2)nc1C(=O)O` (single isomer, unassigned) [Compound 331a], the “Ymin (24 h)” value is listed as “A (Ymin < 50%)” and the DC50 was less than 100 nM.
For `Cc1c(O[C@H]2CC[C@H](CCCN3CC[C@@H](c4ccc5c(C6CCC(=O)NC6=O)nn(C)c5c4)C3)CC2)cccc1-c1ccc(N2CCc3cccc(C(=O)Nc4nc5ccccc5s4)c3C2)nc1C(=O)O` (single isomer, unassigned) [Compound 331b] the same measures were “A (Ymin < 50%)” and less than 100 nM.
In the case of `Cc1c(O[C@H]2CC[C@H](CCCCN3CC[C@H](c4ccc5c(C6CCC(=O)NC6=O)nn(C)c5c4)C3)CC2)cccc1-c1ccc(N2CCc3cccc(C(=O)Nc4nc5ccccc5s4)c3C2)nc1C(=O)O` (single isomer, unassigned) [Compound 332a], the “Ymin (24 h)” value is on record as “A (Ymin < 50%)” and the DC50 was less than 100 nM.
Taken in the same sequence, the figures for `Cc1c(O[C@H]2CC[C@H](CCCCN3CC[C@@H](c4ccc5c(C6CCC(=O)NC6=O)nn(C)c5c4)C3)CC2)cccc1-c1ccc(N2CCc3cccc(C(=O)Nc4nc5ccccc5s4)c3C2)nc1C(=O)O` (single isomer, unassigned) [Compound 332b] were “A (Ymin < 50%)” and less than 100 nM.
For `Cc1c(O[C@H]2CC[C@H](CCC[C@H](C)N3CCN(c4ccc5c(C6CCC(=O)NC6=O)nn(C)c5c4)CC3)CC2)cccc1-c1ccc(N2CCc3cccc(C(=O)Nc4nc5ccccc5s4)c3C2)nc1C(=O)O` (single isomer, unassigned) [Compound 333a] the same measures were “A (Ymin < 50%)” and less than 100 nM.
For `Cc1c(O[C@H]2CC[C@H](CCC[C@@H](C)N3CCN(c4ccc5c(C6CCC(=O)NC6=O)nn(C)c5c4)CC3)CC2)cccc1-c1ccc(N2CCc3cccc(C(=O)Nc4nc5ccccc5s4)c3C2)nc1C(=O)O` (single isomer, unassigned) [Compound 333b] the same measures were “A (Ymin < 50%)” and less than 100 nM.
Turning to `Cc1c(O[C@H]2CC[C@H](CCCC(C)N3CCN(c4cccc5c(C6CCC(=O)NC6=O)nn(C)c45)CC3)CC2)cccc1-c1ccc(N2CCc3cccc(C(=O)Nc4nc5ccccc5s4)c3C2)nc1C(=O)O` (single isomer, unassigned) [Compound 349a], the “Ymin (24 h)” value is reported as “A (Ymin < 50%)” and the DC50 is less than 100 nM.
Taken in the same sequence, the figures for `Cc1c(O[C@H]2CC[C@H](CCC[C@@H](C)N3CCN(c4cccc5c(C6CCC(=O)NC6=O)nn(C)c45)CC3)CC2)cccc1-c1ccc(N2CCc3cccc(C(=O)Nc4nc5ccccc5s4)c3C2)nc1C(=O)O` (single isomer, unassigned) [Compound 349b] were “A (Ymin < 50%)” and less than 100 nM.
Regarding `Cc1c(O[C@H]2CC[C@H](CCCCN3CCC[C@H](c4cccc5c(C6CCC(=O)NC6=O)nn(C)c45)C3)CC2)cccc1-c1ccc(N2CCc3cccc(C(=O)Nc4nc5ccccc5s4)c3C2)nc1C(=O)O` (single isomer, unassigned) [Compound 351a], the “Ymin (24 h)” value is “A (Ymin < 50%)” and the DC50 is less than 100 nM.
Taken in the same sequence, the figures for `Cc1c(O[C@H]2CC[C@H](CCCCN3CCC[C@@H](c4cccc5c(C6CCC(=O)NC6=O)nn(C)c45)C3)CC2)cccc1-c1ccc(N2CCc3cccc(C(=O)Nc4nc5ccccc5s4)c3C2)nc1C(=O)O` (single isomer, unassigned) [Compound 351b] were “A (Ymin < 50%)” and less than 100 nM.
In the case of `Cc1c(O[C@H]2CC[C@H](CCCCN3CCC[C@H](c4ccc5c(C6CCC(=O)NC6=O)nn(C)c5c4)C3)CC2)cccc1-c1ccc(N2CCc3cccc(C(=O)Nc4nc5ccccc5s4)c3C2)nc1C(=O)O` (single isomer, unassigned) [Compound 352a], the “Ymin (24 h)” value was “A (Ymin < 50%)” and the DC50 is less than 100 nM.
Taken in the same sequence, the figures for `Cc1c(O[C@H]2CC[C@H](CCCCN3CCC[C@@H](c4ccc5c(C6CCC(=O)NC6=O)nn(C)c5c4)C3)CC2)cccc1-c1ccc(N2CCc3cccc(C(=O)Nc4nc5ccccc5s4)c3C2)nc1C(=O)O` (single isomer, unassigned) [Compound 352b] were “A (Ymin < 50%)” and less than 100 nM.
As to `Cc1cc(OC[C@@H](C)CC2CCN(CC(=O)Nc3ccc4c(C5CCC(=O)NC5=O)nn(C)c4c3)CC2)ccc1-c1ccc(N2CCc3cccc(C(=O)Nc4nc5ccccc5s4)c3C2)nc1C(=O)O` (stereo in doubt) [Compound 271b, 6-(8-(benzo[d]thiazol-2-ylcarbamoyl)-3,4-dihydroisoquinolin-2(1H)-yl)-3-(4-((2S)-3-(1-(2-((3-(2,6-dioxopiperidin-3-yl)-1-methyl-1H-indazol-6-yl)amino)-2-oxoethyl)piperidin-4-yl)-2-methylpropoxy)-2-methylphenyl)picolinic acid], the “Ymin (24 h)” value is listed as “C (Ymin ≥ 70%)” and the DC50 was less than 100 nM.
For `Cc1c(OCC[C@H]2CCC3(CCN(CC(=O)Nc4ccc5c(C6CCC(=O)NC6=O)nn(C)c5c4)CC3)C2)cccc1-c1ccc(N2CCc3cccc(C(=O)Nc4nc5ccccc5s4)c3C2)nc1C(=O)O` (stereo in doubt) [Compound 272a, 6-(8-(benzo[d]thiazol-2-ylcarbamoyl)-3,4-dihydroisoquinolin-2(1H)-yl)-3-(3-(2-((2S)-8-(2-((3-(2,6-dioxopiperidin-3-yl)-1-methyl-1H-indazol-6-yl)amino)-2-oxoethyl)-8-azaspiro[4.5]decan-2-yl)ethoxy)-2-methylphenyl)picolinic acid] the same measures were “A (Ymin < 50%)” and less than 100 nM.
